The values below are quoted from earlier work in paper PMC7987348, “Structural basis for human TRPC5 channel inhibition by two distinct inhibitors” (eLife, 2021).

Structures are written as SMILES.

This series relates to TRPC3/6. The arrangement: method as in Richter et al., 2014. As to conditions: ref Richter et al., 2014; cited from earlier work.

On to `Clc1ccc(Cn2c(CN3CCCC3)nc3ccccc32)cc1` [CMZ, clemizole], for which the “fold more potent against TRPC5 than TRPC3/6” value is listed as 10 fold.
